Here are results for 79 compounds from the METLIN SMRT retention time set (Domingo-Almenara et al. 2019).

Each structure is given as a SMILES string.

The series in a line: gradient 5% acetonitrile 3 min, to 50% in 2 min, to 85% in 15 min, held 3 min, 100 µL/min. The settings on record: column: Zorbax Extend-C18 2.1 x 50 mm; eluents: water / acetonitrile, 0.1% formic acid. A digest of the protocol:
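Data were gathered over 3 months by HPLC coupled to a quadrupole time-of-flight mass spectrometer, operated in positive and negative ionization mode. Mixtures of ~100 pure standards ran on a Zorbax Extend-C18 column (2.1 × 50 mm, 1.8 μm) at 100 μL/min, with water and acetonitrile each containing 0.1% formic acid and dead and dwell volumes of 40 μL and 900 μL. Retention time was read from adduct peaks picked by computer and checked manually.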
Compound `CCOc1ccc(CC(=O)N2c3ccccc3CC2c2nc(C3CC3)no2)cc1OCC` (centres undefined) gave an RP-LC retention time of 1070 s. In turn, `COC(=O)c1c(C)[nH]c(C(=O)N2CCC(CC(=O)NCCc3c[nH]c4ccc(C)cc34)CC2)c1C` gave an RP-LC retention time of 750 s. Consider `Cc1cc2c(cc1S(=O)(=O)N1CCN(c3ccccn3)CC1)OCCN2C`, for which the RP-LC retention time came out at 668 s.

The compound `CS(=O)(=O)CCC(C(=O)N1CCN(c2ccccn2)CC1)N1Cc2ccccc2C1=O` (centres undefined) gave an RP-LC retention time of 917 s. The compound `CN(CCc1noc(-c2ccccc2)n1)C(=O)CSc1ccccc1` gave an RP-LC retention time of 959 s. Under `O=C(Cn1cnc(-c2ccc(Cl)cc2)cc1=O)NCc1cccnc1` stands 568 s.

Compound `CCn1cc(C2=CCN(C(=O)Nc3ccc(OC)c(F)c3)CC2)c2cccnc21` registered an RP-LC retention time of 885 s. Compound `O=S(=O)(c1ccccc1Cl)N1CCN(c2ccc(Nc3ccccn3)nn2)CC1` displayed an RP-LC retention time of 593 s. `CNC(=O)CN1CCC(Oc2cc3c(Nc4cccc(Cl)c4F)ncnc3cc2OC)CC1`: the RP-LC retention time was found to be 610 s. In the case of `O=C(NCc1ccc(F)cc1)Nc1c(-c2ccccc2)nc2ccccn12`, the RP-LC retention time came out at 639 s. Compound `CCCc1ccc(S(=O)(=O)N2CCC3(CC2)CN(C)CC3c2nnc(CC)o2)cc1` (centres undefined) came in with an RP-LC retention time of 692 s.

For the compound `O=C(NCCCn1cccc1)c1ccc(F)c(F)c1`, the RP-LC retention time turned out to be 791 s. In the case of `Cc1nc(-c2cccnc2)nc2c1CCC(=O)N2CCN(C)C`, the RP-LC retention time worked out at 503 s. Under `CCC(C)NC(=O)Cn1ccn2nc(-c3ccc(F)cc3)c(CO)c2c1=O` (centres undefined) stands 725 s; under `CCN(Cc1ccccc1)C(=O)C1CCN(c2ncnc3c2oc2ccccc23)CC1`, 871 s. With `O=C(Cn1c(=O)c2cccn2c2ccc(F)cc21)NCCCN1CCOCC1`, the RP-LC retention time is 602 s. `CCOc1ccc(C(=O)NC(C(=O)Nc2nc3ccccc3[nH]2)C(C)CC)cc1` (centres undefined) came in with an RP-LC retention time of 750 s. `Cn1c(C2CCN(C(=O)Nc3cc(F)ccc3F)CC2)cc(=O)n2nccc12`: the RP-LC retention time is 695 s. Under `CCCC(=O)N1CCCN(C2=NS(=O)(=O)C(c3ccccc3)=C2C)CC1` stands 740 s; under `Cc1cc2nn(CC(=O)NCC3CCCO3)c(=O)n2c(Nc2ccccc2C)n1` (centres undefined), 808 s; under `O=C1CCC2(C(=O)NCCc3ccccc3)CCCC=C2N1c1ccccc1` (centres undefined), 808 s.

For the compound `O=C(O)c1ccc(Nc2c(-c3cccc(Cl)c3)nc3cnccn23)cc1`, the RP-LC retention time came out at 714 s. Compound `CC(Sc1nnnn1-c1ccccc1)C(=O)Nc1ccc(N2CCN(C)CC2)cc1` (centres undefined) displayed an RP-LC retention time of 580 s. Compound `COc1ccccc1-c1nc(-c2ccc3c(c2)oc(=O)n3C(C)C)no1` came in with an RP-LC retention time of 1090 s. Take `COc1cc(OC)c(NC(=O)Nc2c(-c3ccc(F)cc3)nc3ccccn23)cc1Cl`: the RP-LC retention time was found to be 708 s. For the compound `Cc1ccc(-c2csc(NC(=O)COc3c(C)ccc(C)c3C)n2)cc1`, the RP-LC retention time was 1320 s. For the compound `Cc1cc(C(=O)N(C)C)c(C)n1-c1ccc(O)cc1`, the RP-LC retention time came to 661 s. Under `O=S(=O)(Nc1ccc(Cn2cncn2)cc1)c1ccc2c(c1)CCC2` stands 759 s; under `CC1CCCCN1CCNC(=O)c1cc(S(=O)(=O)N2CCCC2)ccc1Cl` (centres undefined), 617 s. `CCOC(=O)c1[nH]c(C)c(C(=O)NCCN(C)C)c1C` returned an RP-LC retention time of 571 s. Under `COc1ccccc1N1CCN(CCCNc2cc(C(=O)O)c3ccccc3n2)CC1` stands 575 s; under `Cc1cc(C)cc(C(=O)N2CCN(c3nnc4ccccn34)CC2)c1`, 657 s; under `O=C(NCc1ccccc1F)C1CCCN(c2nc3ccccc3n(Cc3ccccc3)c2=O)C1` (centres undefined), 1150 s. As for `Cc1ccc(C2NC(=O)N(CC(=O)Nc3cc(C)on3)C3=C2C(=O)OC3)cc1` (centres undefined), the RP-LC retention time worked out at 722 s. The compound `COc1ccccc1NC(=O)N1CCOc2ccc(Cl)cc21` showed an RP-LC retention time of 1050 s. In the case of `O=C(NCC1CCCO1)C1CCCN(c2ncnc3c2oc2ccccc23)C1` (centres undefined), the RP-LC retention time was found to be 656 s. Compound `CSc1ccc(CNC(=O)c2c(C)oc3ccn(Cc4cccc(F)c4)c(=O)c23)cc1` gave an RP-LC retention time of 1110 s. For the compound `O=C(Nc1ccc2c(c1)CN(C(=O)Cn1c(=O)oc3ccccc31)CCO2)C1CC1`, the RP-LC retention time came to 767 s. `COc1ccc(-n2ccc(=O)c(-c3nc(-c4ccc5c(c4)OCO5)no3)n2)cc1` showed an RP-LC retention time of 855 s. `CC(C)c1nnc(C2CN(Cc3ccc(F)c(Cl)c3)CC23CCN(C)CC3)o1` (centres undefined) yielded an RP-LC retention time of 591 s. The compound `CCOCCCNC(=O)C1CCN(c2nnc3c(Cl)cccn23)CC1` returned an RP-LC retention time of 610 s. For the compound `O=C(NCc1ccc(-c2noc(-c3n[nH]c4c3CCCC4)n2)s1)C1CC1`, the RP-LC retention time turned out to be 786 s. Compound `O=C(Cn1nc(Cc2ccncc2)c2ccccc2c1=O)N1CC=C(c2ccccc2)CC1` came in with an RP-LC retention time of 685 s. `COc1ccc(S(=O)(=O)N2CCC(c3noc(-c4cccnc4)n3)C2)cc1` (centres undefined) had an RP-LC retention time of 793 s. The compound `CCc1nc(-c2ccc3c(c2)CCN3C(=O)Cc2cc(OC)cc(OC)c2)no1` had an RP-LC retention time of 996 s. As to `Cc1ccc(NC(=O)Cn2ccc3ccc(-c4nnc(C)o4)cc32)nc1`, the RP-LC retention time was 690 s.

Compound `Cc1ccc(NC(=O)C2CCN(S(=O)(=O)c3cc(C(=O)N(C)C)cs3)CC2)cc1C` returned an RP-LC retention time of 835 s. Under `CCOc1ccccc1-c1nc(-c2cn(-c3ccc(F)cc3)nn2)no1` stands 1090 s. Regarding `COc1ccc(-c2ccnn2-c2ccc(SCc3cccc(F)c3)nn2)cc1`, the RP-LC retention time turned out to be 1300 s. For `CCN1C(=O)CCc2cc(NS(=O)(=O)c3ccc(Cl)c(Cl)c3)ccc21`, the RP-LC retention time stood at 904 s.

As to `Cc1noc(C)c1C1CCCN1C(=O)c1cnn2c(C(F)(F)F)cc(-c3ccco3)nc12` (centres undefined), the RP-LC retention time was determined as 875 s.

As to `CCc1nc(-c2cccc(-c3noc(CNC(=O)Cc4ccc(Cl)cc4)n3)c2)cs1`, the RP-LC retention time was 1100 s.

As for `NC(=O)C1=C(N)c2ccccc2C1c1ccccc1` (centres undefined), the RP-LC retention time turned out to be 822 s. Under `CCOc1ccc(N2CC(c3nc(-c4ccc(OC)c(OC)c4)no3)CC2=O)cc1` (centres undefined) stands 882 s; under `O=C(c1ccc(F)c(F)c1)N1CCN(c2cc(-c3cccnc3)[nH]n2)CC1`, 615 s; under `CCN1C(=O)C2CCC(=O)N2c2ccc(C(=O)NC3CCCC3)cc21` (centres undefined), 692 s. On to `CCCCN(C)C(=O)CCC1CCCN(c2cc(NCC)ncn2)C1` (centres undefined), for which the RP-LC retention time was determined as 658 s.

In turn, `CCCN1C(=O)COc2ccc(-c3noc(-c4ccccc4Br)n3)cc21` returned an RP-LC retention time of 1280 s. Regarding `O=C(Nc1cc(F)ccc1F)Nc1c(-c2ccccc2)nc2ccccn12`, the RP-LC retention time worked out at 677 s. `O=C(Nc1ccc(F)c(F)c1)C1CCN(C(=O)c2ncn3c2COC(c2ccc(F)cc2)C3)CC1` (centres undefined) gave an RP-LC retention time of 852 s. `CCN1c2ccc(C)cc2C(=O)NC12CCN(C(=O)c1cccc(Cl)c1)CC2` showed an RP-LC retention time of 603 s. Take `CCSc1nnc(NC(=O)CN(C)c2nc3c(Cl)cccc3s2)s1`: the RP-LC retention time came to 904 s. Under `CN1C(=O)c2cc(C(=O)NCc3ccccc3F)nn2CC1(C)C(=O)NC1CCCCC1` (centres undefined) stands 785 s. `COc1cccc(NC(=O)NC2CCN(c3ccc(F)c(C)c3)C2=O)c1` (centres undefined) yielded an RP-LC retention time of 818 s.

Compound `COc1ccc(OC)c(S(=O)(=O)Cc2nc(-c3ccc(C)cc3)no2)c1` yielded an RP-LC retention time of 1000 s. Regarding `Cc1ccccc1CNC(=O)CCc1nnc2c3cc(-c4ccc(F)cc4)nn3ccn12`, the RP-LC retention time came to 811 s.

The compound `Cc1ccc(NC(=O)C2CCN(S(=O)(=O)c3ccc4c(c3)NC(=O)C(C)O4)CC2)cc1` (centres undefined) showed an RP-LC retention time of 817 s.

As for `Cc1ccc(C)c(NC(=O)CN2CCN(C(=O)Nc3ccc(Br)cc3)CC2=O)c1`, the RP-LC retention time worked out at 789 s. The compound `CNC(=O)CCc1nc2ccccc2n(CC(=O)N2CCOc3ccc(C)cc32)c1=O` gave an RP-LC retention time of 728 s. Regarding `CCOc1ccc(-c2cc3c(=O)n(Cc4nc(-c5ccc(OC)c(OC)c5)no4)ncn3n2)cc1`, the RP-LC retention time worked out at 1060 s. Take `COc1ccc(-c2csc(NC(=O)CS(=O)(=O)c3ccc(Cl)cc3)n2)cc1C`: the RP-LC retention time amounted to 1080 s. Under `CCOCC(=O)N1CC(F)(F)C[C@H]1c1nc(C(=O)NC)no1` stands 626 s; under `CCCC(=O)Nc1nc(-c2ccc(OC)cc2)c(C)s1`, 956 s; under `COc1ccc(-c2nnc(N3CCC(C(=O)NCCC(C)C)CC3)o2)cc1`, 838 s. `Cc1ccc(F)cc1NS(=O)(=O)c1cn(CC(C)C)c2ncccc12` displayed an RP-LC retention time of 993 s. Compound `CCOC(=O)c1c(N)n(Cc2ccccc2)c2nc3ccccc3nc12` returned an RP-LC retention time of 739 s.

`COc1ccc(N2C(=O)C3N=NN(Cc4nc(-c5cccc(C)c5)no4)C3C2=O)cc1` (centres undefined): the RP-LC retention time was determined as 993 s. The compound `CC(C)Cc1ccc([C@H](C)C(=O)O)cc1` displayed an RP-LC retention time of 1040 s. For `Cc1cc(C)cc(NC(=O)Nc2nccn(-c3ccc4c(c3)CCC4)c2=O)c1`, the RP-LC retention time was determined as 1210 s.
